Source: patent US20070167528A1, “Methods of treating hepatocellular carcinoma with denspm” (Genzyme Corporation, priority 2004, published 2007)

Experiments:
[1] = Physical and chemical stability of DENSPM preparations at room temperature; format: physicochemical
Experimental: DENSPM may be supplied as a lyophilized powder, for example packaged in 10 mL clear glass vials containing 215 mg. Such a lyophilized powder may be prepared by dissolving DENSPM hydrochloride in sterile WFI to provide a 5% solution. Such solution may be pH adjusted to a pH of preferably between about 5.8 and 6.2, most preferably 6.0, with 2N NaOH. 4.3 ml of this solution is sterile filled into the glass vials thru Millipak (R) 0.45 and 0.22 micron filters and then lyophilized. […] DENSPM is reconstituted with 4.3 mL of water for injection, USP. The resulting solution contains 50 mg/mL of DENSPM and is chemically and physically stable for up to approximately 96 hours at room temperature. When further diluted in 50 mL normal saline, the resulting admixture is chemically and physically stable for up to 24 hours when stored at room temperature. After reconstitution, the drug is normally used within 8 hours because it contains no preservatives.

[2] = Solubility of DENSPM hydrochloride salt in sterile water for injection; format: physicochemical; details: as its hydrochloride salt
Text: The terms “pharmaceutical composition” and “pharmaceutical preparation” are used interchangeably herein to mean DENSPM in association with a pharmaceutically-acceptable carrier. Excipients and/or adjuvants may optionally be added to the pharmaceutical preparations. DENSPM preparations may be conveniently provided in unit dosage form and may be prepared by methods well-known in the art of pharmacy. Formulations suitable for intravenous administration are preferred. […] Such a solution may be filled into individual dose vials and lyophilized for future reconstitution and administration.

[3] = stated as known effect of DENSPM; cited from earlier work

## CCNCCCNCCCNCCCNCC [DENSPM, N,N′-Bis[3-(ethylamino)propyl],1,3-propanediamine]
[1]; further diluted in 50 mL normal saline, stored at room temperature
  chemical and physical stability of diluted admixture: up to 24 hours
[1]; lyophilized powder from 5% DENSPM hydrochloride solution, pH about 6.0, stored at room temperature
  physical and chemical stability of lyophilized powder: physically and chemically stable
[1]; reconstituted with 4.3 mL water for injection, 50 mg/mL, room temperature
  chemical and physical stability of reconstituted solution: ≤ 96 h
[2]
  solubility: relatively high solubility
[3]
  serum creatinine levels: transiently and reversibly elevate serum creatinine levels
